In PubChem BioAssay (NCI):
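Test compounds were applied to cells in 96-well plates for 48 hours at 5 doses. At the TGI there is no net growth.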

Tests used:
Assay in all cases: NCI anticancer screen, dose series, 48 h
MALME-3M melanoma = tested on: MALME-3M melanoma
TK-10 renal = tested on: TK-10 renal
MDA-MB-231 breast = tested on: MDA-MB-231 breast
SNB-75 CNS = tested on: SNB-75 CNS
786-0 renal = tested on: 786-0 renal
KM12 colon = tested on: KM12 colon
HL-60(TB) leukemia = tested on: HL-60(TB) leukemia
EKVX NSCLC = tested on: EKVX NSCLC
HT29 colon = tested on: HT29 colon
CAKI-1 renal = tested on: CAKI-1 renal
A549 NSCLC = tested on: A549 NSCLC
MOLT-4 leukemia = tested on: MOLT-4 leukemia
HCT-116 colon = tested on: HCT-116 colon
RXF 393 renal = tested on: RXF 393 renal

Structure (SMILES)	TGI (MALME-3M melanoma)	TGI (TK-10 renal)	TGI (MDA-MB-231 breast)	TGI (SNB-75 CNS)	TGI (786-0 renal)	TGI (KM12 colon)	TGI (HL-60(TB) leukemia)	TGI (EKVX NSCLC)	TGI (HT29 colon)	TGI (CAKI-1 renal)	TGI (A549 NSCLC)	TGI (MOLT-4 leukemia)	TGI (HCT-116 colon)	TGI (RXF 393 renal)
O=C(/C=C/c1c(O)c2ccccc2[nH]c1=O)CC(=O)C(=O)Nc1cccc(O)c1	> 100 µM	> 100 µM	> 100 µM	> 100 µM	> 100 µM	> 100 µM	> 100 µM	> 100 µM	> 100 µM	> 100 µM	> 100 µM	> 100 µM	> 100 µM	–
CC(C)(C)c1cc(N=NC(=S)NCc2ccccc2)cc(C(C)(C)C)c1O	> 100 µM	> 100 µM	–	99.6 µM	> 100 µM	–	> 100 µM	> 100 µM	> 100 µM	–	> 100 µM	> 100 µM	> 100 µM	> 100 µM
CCOC(=O)C(NC(=O)NCc1ccc(F)cc1)C(F)(F)F (centres undefined)	–	> 100 µM	–	> 100 µM	> 100 µM	–	> 100 µM	> 100 µM	> 100 µM	–	> 100 µM	–	> 100 µM	> 100 µM
Cc1ccc(-c2cnc(NC3OC(COC(=O)c4ccccc4)C(OC(=O)c4ccccc4)C(OC(=O)c4ccccc4)C3OC(=O)c3ccccc3)s2)cc1 (centres undefined)	> 100 µM	> 100 µM	> 100 µM	> 100 µM	> 100 µM	–	–	> 100 µM	> 100 µM	–	> 100 µM	> 100 µM	> 100 µM	> 100 µM
c1ccc2c(NCCCCCCCCNc3cccc4ccccc34)cccc2c1	46.5 µM	43.6 µM	–	83.2 µM	57.1 µM	> 100 µM	50.7 µM	> 10 µM	> 100 µM	35.8 µM	> 100 µM	39.9 µM	40 µM	–
O=C1CC(n2cccc2)c2cc(Br)sc21 (centres undefined)	> 100 µM	> 100 µM	> 100 µM	> 100 µM	> 100 µM	> 100 µM	> 100 µM	> 100 µM	> 100 µM	> 100 µM	> 100 µM	87 µM	> 100 µM	–
Clc1cccc(Cl)c1C1SCc2nc3cc4ccccc4cc3n21 (centres undefined)	> 100 µM	> 100 µM	> 100 µM	> 100 µM	> 100 µM	> 100 µM	–	> 100 µM	> 100 µM	> 100 µM	> 100 µM	> 100 µM	> 100 µM	> 100 µM
COc1ccc2c(c1)CC1NC2Cc2ccccc21 (centres undefined)	> 100 µM	> 100 µM	–	> 100 µM	> 100 µM	> 100 µM	–	> 100 µM	> 100 µM	> 100 µM	> 100 µM	> 100 µM	> 100 µM	–
O=c1c2cc([N+](=O)[O-])cnc2sn1-c1ccc(Oc2ccccc2)cc1	74.9 µM	> 100 µM	90.7 µM	> 100 µM	> 100 µM	> 100 µM	> 100 µM	> 100 µM	> 100 µM	–	> 100 µM	> 100 µM	> 100 µM	–
O=C(/C=C(\O)C(=O)O)/C=C(\O)c1ccccc1Cl	> 100 µM	> 100 µM	–	> 100 µM	> 100 µM	> 100 µM	> 100 µM	> 100 µM	> 100 µM	> 100 µM	> 100 µM	> 100 µM	> 100 µM	> 100 µM
CC1C(c2ccccc2)=CCON1c1ccccc1 (centres undefined)	> 100 µM	–	–	> 100 µM	> 100 µM	> 100 µM	> 100 µM	> 100 µM	> 100 µM	> 100 µM	> 100 µM	> 100 µM	> 100 µM	> 100 µM
C=C1[C@H](OCC(C)C)[C@@H](OCC(C)C)[C@@H](O)C(C)(C)/C=C/[C@H](C)C(=O)[C@@]2(O)C[C@H](C)[C@H](O)[C@@H]2[C@H]1OCC(C)C	–	> 7.5 µM	> 7.5 µM	> 7.5 µM	> 7.5 µM	> 7.5 µM	–	–	–	> 7.5 µM	–	> 7.5 µM	> 7.5 µM	> 7.5 µM
CC/C(=C/OC)P1(=O)OC(C)(C)CN1C(C)(C)C (centres undefined)	> 100 µM	> 100 µM	> 100 µM	–	> 100 µM	> 100 µM	–	> 100 µM	> 100 µM	> 100 µM	> 100 µM	–	> 100 µM	–
CC1=C(N(C)C)C(=O)c2nc3n(c2C1=O)CCC3OC(N)=O (centres undefined)	23.3 µM	32.3 µM	–	42.5 µM	31.6 µM	31.5 µM	31.6 µM	36 µM	35.6 µM	33.1 µM	35.1 µM	> 100 µM	28.8 µM	–
CN=C1Nc2ccccc2C(=S)N2CSC[C@@H]12	> 100 µM	> 100 µM	> 100 µM	–	> 100 µM	> 100 µM	–	–	> 100 µM	> 100 µM	> 100 µM	> 100 µM	> 100 µM	> 100 µM
NC(=S)Nc1nnc(-c2ccc(-c3nnc(NC(N)=S)o3)cc2)o1	> 100 µM	> 100 µM	–	> 100 µM	> 100 µM	> 100 µM	> 100 µM	> 100 µM	> 100 µM	> 100 µM	> 100 µM	> 100 µM	> 100 µM	> 100 µM
CC[N+](CC)(CC)Cc1cn(S(=O)(=O)c2ccccc2)c2ccccc12	> 100 µM	> 100 µM	–	> 100 µM	> 100 µM	> 100 µM	> 100 µM	–	> 100 µM	> 100 µM	> 100 µM	> 100 µM	> 100 µM	–
[N-]=[N+]=Nc1cc(=O)n(-c2ccccc2)c(=O)n1-c1ccccc1	> 100 µM	> 100 µM	> 100 µM	> 100 µM	> 100 µM	> 100 µM	–	> 100 µM	> 100 µM	> 100 µM	> 100 µM	> 100 µM	> 100 µM	> 100 µM
